Assay results reported in ChEMBL document CHEMBL1201862, “PubChem BioAssay data set” (2004).
The source made the active and inactive calls.

Experiments:
[1] = luciferase reporter signal reduction – luminescence, H4-C neuroglioblastoma cells, dose response (AID 2458); assay type: functional, cell-based;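 also: H4 neuroglioblastoma cells stably carrying a luciferase reporter gene fusion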
[2] = inhibitors of clade B AD8 Env fusion, dose response, cell-based, cherry-pick (AID 652062); assay type: functional;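 also: luciferase signal from cell-cell fusion driven by HIV-1 clade B AD8 Env; potency is for inhibitors of fusion seen as a drop in luminescence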
[3] = ZM109 Env clade C HIV-1 fusion inhibitors, dose response, HeLa effector, CEM target cells, luciferase, cherry-pick (AID 652058); assay type: functional, cell-based
Jurkat = assay: antigen receptor-induced NF-kB inhibitors, dose response, Jurkat, luciferase reporter, luminescence, B- and T-cell (AID 489004); assay type: functional, cell-based; settings: Homo sapiens;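 also: NF-kB luciferase reporter Jurkat cells stimulated with PMA plus ionomycin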
[4] = inhibitors of SNCA 5'UTR-driven reporter translation, confirmation, H4 neuroglioma cells, luminescence (AID 1988); assay type: functional, cell-based
[5] = inhibitors of SNCA 5'UTR-driven translation, confirmation, luminescence, H4 neuroglioblastoma cells, dose confirmation (AID 2454); assay type: functional, cell-based;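 also: H4 neuroglioblastoma cells carrying an alpha-synuclein 5'UTR luciferase reporter; potency for inhibition of the luciferase signal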
[6] = biological target: Luciferin 4-monooxygenase (Photinus pyralis, UniProt P08659); assay: Counter Screen for Luciferase-based Assay Positives. [Related pubchem assays: 620, 618, 411 ]
[7] = off-target signal loss in HeLa-CEM21 co-culture – HeLa F-luc CTL cells, cherry-picked, counter-screen for HIV-1 Env fusion inhibitor project, dose response (AID 652040); assay type: functional, cell-based;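 also: potency for signal decrease marking cytotoxic or nonspecific inhibition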
[8] = biological target: T1, Heat shock factor protein 1 (Mus musculus, UniProt P38532); assay: inhibition of MG132-induced HSE-luciferase signal, confirmation, cell-based, NIH3T3, luminescence, dose retest (AID 2382); assay type: functional;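 also: NIH3T3 fibroblasts with HSF1-driven luciferase reporter stressed by proteasome inhibitor MG132; luminescence from HSF1-driven luciferase expression after 8 hours of MG132 stress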
T1 sequence (P38532 whole entry): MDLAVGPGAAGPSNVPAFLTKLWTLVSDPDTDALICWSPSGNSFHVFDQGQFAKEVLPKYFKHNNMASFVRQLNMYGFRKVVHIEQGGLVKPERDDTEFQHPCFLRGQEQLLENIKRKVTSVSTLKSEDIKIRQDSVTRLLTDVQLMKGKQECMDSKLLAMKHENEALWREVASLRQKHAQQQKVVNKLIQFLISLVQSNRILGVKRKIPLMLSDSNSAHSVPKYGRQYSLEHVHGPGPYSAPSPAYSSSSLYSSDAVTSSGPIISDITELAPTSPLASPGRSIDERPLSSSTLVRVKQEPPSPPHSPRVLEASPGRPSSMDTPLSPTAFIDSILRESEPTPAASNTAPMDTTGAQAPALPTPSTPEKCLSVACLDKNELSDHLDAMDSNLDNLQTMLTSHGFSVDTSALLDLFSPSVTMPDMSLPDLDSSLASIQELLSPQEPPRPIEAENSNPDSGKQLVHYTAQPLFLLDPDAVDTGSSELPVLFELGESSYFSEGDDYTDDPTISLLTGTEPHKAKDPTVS

HT-1080 = assay: cytotoxicity in HT1080 fibrosarcoma cells, cell-based, fluorescence readout (AID 620); assay type: functional; settings: Homo sapiens
[9] = cytotoxicity in HEK-293T NF-kB-Luc cells, dose response, cytotoxicity control for B/T-cell NF-kB inhibitor project, cell-based, uHTS hits (AID 489019); assay type: functional;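 also: IC50 reflects cytotoxicity as loss of cell viability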
[10] = inhibitors of HIV Env-driven cell fusion, dose response, cherry-pick (AID 652057); assay type: functional, cell-based
[11] = biological target: T2, Microphthalmia-associated transcription factor (Homo sapiens, UniProt O75030); assay: TRPM1 promoter luciferase signal decrease, dose response, MITF inhibitor project, cell-based, SK-MEL-5, cherry-picked, set 3 (AID 493073); assay type: functional
T2 sequence (O75030 whole entry): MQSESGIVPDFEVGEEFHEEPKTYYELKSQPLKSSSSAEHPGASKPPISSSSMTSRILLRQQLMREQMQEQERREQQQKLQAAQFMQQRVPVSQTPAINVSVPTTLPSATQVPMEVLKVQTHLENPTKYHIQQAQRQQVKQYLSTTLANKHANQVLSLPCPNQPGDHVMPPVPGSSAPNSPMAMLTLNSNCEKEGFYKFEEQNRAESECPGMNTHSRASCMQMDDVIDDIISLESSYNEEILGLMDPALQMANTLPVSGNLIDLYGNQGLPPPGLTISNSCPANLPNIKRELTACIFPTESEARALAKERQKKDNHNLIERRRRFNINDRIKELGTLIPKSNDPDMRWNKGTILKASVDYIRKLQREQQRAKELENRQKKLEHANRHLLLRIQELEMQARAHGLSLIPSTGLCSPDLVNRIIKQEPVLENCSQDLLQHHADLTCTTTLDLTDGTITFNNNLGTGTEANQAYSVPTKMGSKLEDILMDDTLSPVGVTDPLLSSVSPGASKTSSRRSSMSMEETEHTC

cells = assay type: functional, cell-based
[12] = inhibitors of firefly luciferase expression or activity, dose response, H4 neuroglioma cells, luminescence (AID 1990); assay type: functional, cell-based
Cytochrome P450 2C19 = Cytochrome P450 2C19 (Homo sapiens, UniProt P33261); assay: Cytochrome panel assay with activity outcomes. Panel member name: p450-cyp2c19 Compounds with AC50 equal or less than 10 uM are considered active; assay type: functional; settings: read-out: AC50
Cytochrome P450 3A4 = Cytochrome P450 3A4 (Homo sapiens, UniProt P08684);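 also: CYP3A4 tested as one member of a cytochrome P450 panel screen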
[13] = growth suppression of PTEN-null colon cells, dose response, cell-based, HCT116 PTEN knockout (AID 1047); assay type: functional;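 also: HCT116 colon tumor cells with PTEN knocked out; cells exposed to compound for 60 hours before readout; potency for loss of cell viability measured by luminescence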
[14] = growth suppression of beta-catenin-knockout colon cells, dose response, cell-based, HCT116, human colon tumor (AID 1045); assay type: functional;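 also: HCT116 colon tumor cells with beta catenin knocked out; cells exposed to compound for 60 hours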
[15] = control 3'UTR Renilla luciferase suppression, dose response, counter-screen for Shn3 inhibitor project, cell-based, Clone20-Shn3RL, cherry-picked (AID 624133); assay type: functional
[16] = microbe, parasite or virus in culture; assay type: functional; settings: Mycobacterium tuberculosis
[17] = Shn3 3'UTR reporter inhibitors, dose response, cell-based, Clone20 osteoblasts, firefly luciferase, cherry-picked (AID 624132); assay type: functional;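 also: firefly luciferase luminescence from reporter carrying the Shn3 3'UTR in osteoblasts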
Beta-galactosidase = Beta-galactosidase (Escherichia coli, UniProt Q8VNN2); assay: beta-galactosidase enzyme inhibitors and activators, dose response, artefact control for CCR6 antagonist project, biochemical, E. coli enzyme, set 3 (AID 504712); assay type: functional
Exodeoxyribonuclease V = Exodeoxyribonuclease V (Escherichia coli (strain K12), UniProt P04993+P07648+P08394); assay: E. coli RecBCD inhibitors, dose response, counter-screen for AddAB inhibitor project, absorbance, V66 E. coli, mutant T4 phage (AID 492957); assay type: functional, cell-based, Escherichia coli str. K-12 substr. MG1655
[18] = Counterscreen for AddAB inhibitors: absorbance-based bacterial cell-based high throughput dose response assay for inhibitors of bacterial viability. [Related pubchem assays (depositor defined):AID435030, AID449728, AID449731, AID488942, AID488955, AID488956]; assay type: functional
[19] = HepG2 cell cytotoxicity, dose response, cytotoxicity control for Shn3 inhibitor project, CellTiter-Glo, cherry-picked (AID 624134); assay type: functional, cell-based
[20] = Luminescence Cell-Based Dose Retest to Confirm Inhibitors of Cancer Stem Cells. [Related pubchem assays (depositor defined):AID2717, AID2721]; assay type: functional; settings: Homo sapiens

Sequence of Cytochrome P450 3A4 (P08684 whole entry): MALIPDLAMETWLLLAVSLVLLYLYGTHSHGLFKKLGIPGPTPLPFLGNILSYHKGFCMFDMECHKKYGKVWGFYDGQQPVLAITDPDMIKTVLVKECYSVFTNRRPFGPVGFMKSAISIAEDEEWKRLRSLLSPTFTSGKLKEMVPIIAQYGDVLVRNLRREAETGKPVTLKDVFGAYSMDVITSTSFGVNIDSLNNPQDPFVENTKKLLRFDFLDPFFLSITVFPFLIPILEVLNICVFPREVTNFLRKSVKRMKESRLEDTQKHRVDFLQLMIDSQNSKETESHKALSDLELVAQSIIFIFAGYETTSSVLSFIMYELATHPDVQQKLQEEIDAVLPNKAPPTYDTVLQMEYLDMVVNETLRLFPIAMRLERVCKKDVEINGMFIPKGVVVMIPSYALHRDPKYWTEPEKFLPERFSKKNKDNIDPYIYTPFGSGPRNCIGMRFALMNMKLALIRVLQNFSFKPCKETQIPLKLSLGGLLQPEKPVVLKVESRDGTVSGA
Sequence of Exodeoxyribonuclease V (P04993 whole entry): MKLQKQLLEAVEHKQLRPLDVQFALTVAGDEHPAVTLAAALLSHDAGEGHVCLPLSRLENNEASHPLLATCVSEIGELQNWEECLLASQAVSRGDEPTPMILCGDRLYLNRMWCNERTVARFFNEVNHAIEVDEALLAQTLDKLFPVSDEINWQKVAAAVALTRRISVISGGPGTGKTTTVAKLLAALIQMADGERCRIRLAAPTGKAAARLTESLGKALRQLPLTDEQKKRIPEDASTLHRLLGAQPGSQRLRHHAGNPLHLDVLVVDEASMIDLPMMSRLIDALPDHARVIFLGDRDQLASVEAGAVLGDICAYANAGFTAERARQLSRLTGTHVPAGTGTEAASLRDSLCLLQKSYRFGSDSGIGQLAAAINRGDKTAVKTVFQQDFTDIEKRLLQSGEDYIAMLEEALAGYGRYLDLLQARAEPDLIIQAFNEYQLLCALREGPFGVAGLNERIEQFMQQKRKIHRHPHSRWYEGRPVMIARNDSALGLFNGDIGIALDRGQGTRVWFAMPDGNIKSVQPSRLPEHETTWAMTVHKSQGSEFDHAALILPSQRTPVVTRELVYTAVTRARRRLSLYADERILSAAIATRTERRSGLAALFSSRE
Sequence of Exodeoxyribonuclease V (P07648 whole entry): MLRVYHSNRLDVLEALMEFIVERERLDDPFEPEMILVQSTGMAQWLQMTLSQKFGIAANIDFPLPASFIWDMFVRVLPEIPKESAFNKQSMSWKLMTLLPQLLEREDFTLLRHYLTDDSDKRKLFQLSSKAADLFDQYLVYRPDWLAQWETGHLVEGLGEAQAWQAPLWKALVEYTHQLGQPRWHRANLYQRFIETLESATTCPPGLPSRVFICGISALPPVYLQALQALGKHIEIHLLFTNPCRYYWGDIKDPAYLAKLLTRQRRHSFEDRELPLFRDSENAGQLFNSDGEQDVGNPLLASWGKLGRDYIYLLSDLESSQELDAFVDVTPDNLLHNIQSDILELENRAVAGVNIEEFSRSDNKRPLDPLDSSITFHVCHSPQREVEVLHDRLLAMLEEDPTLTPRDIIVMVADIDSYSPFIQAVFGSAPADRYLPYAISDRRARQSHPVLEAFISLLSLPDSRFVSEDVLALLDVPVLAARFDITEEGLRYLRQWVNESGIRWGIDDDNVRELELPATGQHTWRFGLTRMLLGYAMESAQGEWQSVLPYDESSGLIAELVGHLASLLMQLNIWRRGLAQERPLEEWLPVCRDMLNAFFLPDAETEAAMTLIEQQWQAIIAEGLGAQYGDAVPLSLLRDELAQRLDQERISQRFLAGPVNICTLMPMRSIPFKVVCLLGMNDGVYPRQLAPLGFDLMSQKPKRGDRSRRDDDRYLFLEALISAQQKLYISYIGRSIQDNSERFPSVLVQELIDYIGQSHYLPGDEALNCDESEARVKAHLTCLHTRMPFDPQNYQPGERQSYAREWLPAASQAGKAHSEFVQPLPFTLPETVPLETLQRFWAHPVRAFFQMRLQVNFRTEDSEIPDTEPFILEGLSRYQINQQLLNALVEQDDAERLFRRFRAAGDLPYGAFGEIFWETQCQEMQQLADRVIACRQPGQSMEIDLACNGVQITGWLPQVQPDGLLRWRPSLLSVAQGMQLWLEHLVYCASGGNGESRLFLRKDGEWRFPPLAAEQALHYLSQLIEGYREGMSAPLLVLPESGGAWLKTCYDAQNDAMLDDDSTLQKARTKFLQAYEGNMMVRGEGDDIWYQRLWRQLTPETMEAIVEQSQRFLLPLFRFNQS
Sequence of Exodeoxyribonuclease V (P08394 whole entry): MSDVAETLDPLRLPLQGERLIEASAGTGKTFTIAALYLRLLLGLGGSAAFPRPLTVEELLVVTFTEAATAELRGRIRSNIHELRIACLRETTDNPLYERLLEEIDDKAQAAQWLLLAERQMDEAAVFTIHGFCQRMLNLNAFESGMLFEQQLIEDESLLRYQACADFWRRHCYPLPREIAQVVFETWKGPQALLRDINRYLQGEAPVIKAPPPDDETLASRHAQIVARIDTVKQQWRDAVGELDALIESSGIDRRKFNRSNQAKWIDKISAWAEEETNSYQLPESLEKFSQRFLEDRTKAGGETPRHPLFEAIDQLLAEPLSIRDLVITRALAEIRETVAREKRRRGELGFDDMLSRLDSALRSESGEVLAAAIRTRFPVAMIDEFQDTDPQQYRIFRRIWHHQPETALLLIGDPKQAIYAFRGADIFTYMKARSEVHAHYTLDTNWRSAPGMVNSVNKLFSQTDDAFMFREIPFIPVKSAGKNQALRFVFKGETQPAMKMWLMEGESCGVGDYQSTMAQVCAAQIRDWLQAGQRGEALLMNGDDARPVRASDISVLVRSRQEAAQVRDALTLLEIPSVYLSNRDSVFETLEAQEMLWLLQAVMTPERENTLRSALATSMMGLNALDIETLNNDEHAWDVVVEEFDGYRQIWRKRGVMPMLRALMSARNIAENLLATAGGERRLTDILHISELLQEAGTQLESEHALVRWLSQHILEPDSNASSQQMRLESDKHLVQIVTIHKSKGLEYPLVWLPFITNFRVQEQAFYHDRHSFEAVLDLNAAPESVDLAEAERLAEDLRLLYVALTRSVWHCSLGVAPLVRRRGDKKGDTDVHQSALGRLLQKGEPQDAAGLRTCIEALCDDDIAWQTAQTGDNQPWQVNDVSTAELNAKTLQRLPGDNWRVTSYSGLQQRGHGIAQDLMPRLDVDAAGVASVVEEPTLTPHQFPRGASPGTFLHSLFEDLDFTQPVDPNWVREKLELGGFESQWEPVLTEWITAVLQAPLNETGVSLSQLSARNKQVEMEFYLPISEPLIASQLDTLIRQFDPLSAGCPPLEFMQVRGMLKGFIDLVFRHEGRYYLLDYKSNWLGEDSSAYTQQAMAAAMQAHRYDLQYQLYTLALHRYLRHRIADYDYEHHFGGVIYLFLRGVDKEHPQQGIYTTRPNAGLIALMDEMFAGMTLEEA
Sequence of Beta-galactosidase (Q8VNN2 whole entry): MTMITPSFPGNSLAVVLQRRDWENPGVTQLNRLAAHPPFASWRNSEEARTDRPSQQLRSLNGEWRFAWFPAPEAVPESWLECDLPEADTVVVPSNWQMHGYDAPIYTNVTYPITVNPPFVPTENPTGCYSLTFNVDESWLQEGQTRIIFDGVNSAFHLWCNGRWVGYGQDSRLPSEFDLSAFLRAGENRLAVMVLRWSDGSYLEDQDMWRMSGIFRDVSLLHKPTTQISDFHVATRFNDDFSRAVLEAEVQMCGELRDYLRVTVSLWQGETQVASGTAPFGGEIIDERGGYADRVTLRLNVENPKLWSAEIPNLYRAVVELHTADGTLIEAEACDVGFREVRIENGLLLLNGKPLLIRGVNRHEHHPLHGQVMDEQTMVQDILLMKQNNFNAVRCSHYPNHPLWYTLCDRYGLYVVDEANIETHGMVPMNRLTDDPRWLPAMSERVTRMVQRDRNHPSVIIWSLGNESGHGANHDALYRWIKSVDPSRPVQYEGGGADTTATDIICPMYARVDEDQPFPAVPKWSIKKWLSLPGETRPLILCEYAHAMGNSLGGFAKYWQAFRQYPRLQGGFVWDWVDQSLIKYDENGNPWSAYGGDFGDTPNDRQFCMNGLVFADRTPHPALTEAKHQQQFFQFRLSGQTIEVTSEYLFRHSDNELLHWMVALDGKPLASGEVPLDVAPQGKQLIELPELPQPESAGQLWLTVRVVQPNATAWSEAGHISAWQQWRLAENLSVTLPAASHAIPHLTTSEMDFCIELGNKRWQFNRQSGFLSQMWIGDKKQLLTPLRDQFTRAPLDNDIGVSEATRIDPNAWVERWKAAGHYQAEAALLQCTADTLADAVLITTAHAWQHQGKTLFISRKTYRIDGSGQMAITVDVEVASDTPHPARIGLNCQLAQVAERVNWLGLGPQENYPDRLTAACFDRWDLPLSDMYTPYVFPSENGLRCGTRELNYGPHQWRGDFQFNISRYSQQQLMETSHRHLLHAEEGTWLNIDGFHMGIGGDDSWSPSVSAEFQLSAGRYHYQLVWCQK
Sequence of Cytochrome P450 2C19 (P33261 whole entry): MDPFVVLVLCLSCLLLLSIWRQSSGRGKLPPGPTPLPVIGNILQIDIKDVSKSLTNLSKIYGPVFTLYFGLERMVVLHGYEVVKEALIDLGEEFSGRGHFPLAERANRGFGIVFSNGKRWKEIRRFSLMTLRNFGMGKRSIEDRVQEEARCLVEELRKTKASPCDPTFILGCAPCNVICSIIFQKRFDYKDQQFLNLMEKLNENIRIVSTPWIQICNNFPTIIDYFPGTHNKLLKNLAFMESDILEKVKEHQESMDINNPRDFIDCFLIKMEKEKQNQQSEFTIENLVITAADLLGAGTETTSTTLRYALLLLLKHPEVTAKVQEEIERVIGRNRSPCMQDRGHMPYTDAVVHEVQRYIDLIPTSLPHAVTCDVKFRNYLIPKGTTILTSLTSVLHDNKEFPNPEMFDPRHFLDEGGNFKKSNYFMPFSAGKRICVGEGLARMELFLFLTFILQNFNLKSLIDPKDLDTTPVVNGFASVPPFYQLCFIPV

With CC(C)(C)c1ccc(C(=O)Nc2ccc(CC(=O)O)cc2)o1 the EC50 [1] was 0.106 µM (active), the AC50 [2] was < 0.26 µM (active) and the AC50 [3] was < 0.26 µM (active). The IC50 (Jurkat) was < 0.16 µM (active), the EC50 [4] was < 0.1 µM (active) and the EC50 [5] was 0.113 µM (active). The EC50 [6] was 0.57 µM (active), the AC50 [7] was 0.558 µM (active) and the EC50 [8] was < 0.16 µM (active). For the same molecule, the EC50 (HT-1080) was > 50 µM (not active), the IC50 [9] was > 80 µM (inactive) and the AC50 [10] was 0.392 µM (active). For the same molecule, the AC50 [11] was 0.329 µM (active), the EC50 (cells) was 0.344 µM (active) and the EC50 [12] was < 0.1 µM (active).
For Cc1sc(NC(=O)c2ccc(OCC(C)C)cc2)c(C(N)=O)c1-c1ccc(Cl)cc1Cl, the AC50 (Cytochrome P450 2C19) was 1.78 µM (inconclusive), the AC50 (Cytochrome P450 3A4) was “inconclusive” and the EC50 [13] was 18.5 µM (active). For the same molecule, the EC50 [14] was 48.2 µM (active).
With O=C(Nc1ccc([N+](=O)[O-])cc1)Nc1ccc(OC(F)F)c(Cl)c1 the AC50 [15] was 4.77 µM (active), the CC50 [16] was 2.83 µM (active) and the AC50 [17] was 3.59 µM (active). The IC50 (Beta-galactosidase) was > 66.6 µM (inactive), the IC50 (Exodeoxyribonuclease V) was > 119 µM (inactive) and the IC50 [18] was > 119 µM (inactive). The EC50 [13] was 1.37 µM (active), the AC50 [19] was 6.24 µM (active) and the AC50 [20] was 1.22 µM (active). The EC50 [14] was 1.9 µM (active).
